This note sets out measurements from PubChem BioAssay AID651733 (The Scripps Research Institute Molecular Screening Center, 2012).

Activity calls are given as the source filed them. How the calls were made is not given here.

The target in this test is Perilipin-5 (Homo sapiens) + 1-acylglycerol-3-phosphate O-acyltransferase ABHD5 (Homo sapiens) (UniProt Q00G26+Q8WTS1). Briefly: ABHD5-PLIN5 interaction inhibitors, dose response, cell lysate, luminescence, proteins expressed in HEK293T (AID 651733).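 Further: split Gaussia princeps luciferase complementation between ABHD5 and MLDP fusion proteins.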
Perilipin-5 (Homo sapiens) + 1-acylglycerol-3-phosphate O-acyltransferase ABHD5 (Homo sapiens), sequence (Q00G26 whole entry, looked up, the tested form may be a part): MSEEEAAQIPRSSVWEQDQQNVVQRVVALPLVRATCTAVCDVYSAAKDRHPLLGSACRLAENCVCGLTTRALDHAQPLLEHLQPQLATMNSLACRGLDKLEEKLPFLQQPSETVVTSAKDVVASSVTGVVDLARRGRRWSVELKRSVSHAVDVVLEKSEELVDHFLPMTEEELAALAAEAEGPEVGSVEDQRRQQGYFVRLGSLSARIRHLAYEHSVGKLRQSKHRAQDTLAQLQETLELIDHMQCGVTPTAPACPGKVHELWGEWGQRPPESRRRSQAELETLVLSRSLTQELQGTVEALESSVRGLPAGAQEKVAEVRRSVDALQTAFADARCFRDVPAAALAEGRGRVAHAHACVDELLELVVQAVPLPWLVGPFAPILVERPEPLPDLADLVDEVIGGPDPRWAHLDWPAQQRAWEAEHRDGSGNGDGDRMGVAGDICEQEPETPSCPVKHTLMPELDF
Perilipin-5 (Homo sapiens) + 1-acylglycerol-3-phosphate O-acyltransferase ABHD5 (Homo sapiens), sequence (Q8WTS1 whole entry, looked up, the tested form may be a part): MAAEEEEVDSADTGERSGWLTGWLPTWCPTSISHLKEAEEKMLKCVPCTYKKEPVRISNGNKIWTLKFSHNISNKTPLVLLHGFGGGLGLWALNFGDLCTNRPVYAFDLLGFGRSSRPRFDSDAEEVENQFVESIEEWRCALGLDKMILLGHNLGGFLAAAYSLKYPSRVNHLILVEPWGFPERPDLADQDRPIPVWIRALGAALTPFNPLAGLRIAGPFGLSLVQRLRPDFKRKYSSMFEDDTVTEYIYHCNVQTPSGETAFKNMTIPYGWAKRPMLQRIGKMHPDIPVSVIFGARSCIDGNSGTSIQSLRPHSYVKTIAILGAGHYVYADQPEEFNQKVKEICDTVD
For `Cc1cccc(C)c1NC(=O)C(c1ccc(C#N)cc1)n1c(=O)c(-c2ccco2)nc2ccccc21` (stereo not given), the half-inhibitory concentration (IC50) – broadly, the concentration needed to halve the response being measured – was 3.4 µM.

Regarding `CCCCCNC(=O)C(c1ccccc1F)n1c(=O)c(-c2ccco2)nc2ccccc21` (stereo not given), the IC50 was 2.39 µM. The value for `CC(=O)Oc1c(Cl)cc(N(C(C)=O)S(=O)(=O)c2ccccc2)c2ccccc12` was 7.06 µM. Then `Cc1ccc(C(=O)c2c(C)oc3c2C(=O)C(=O)c2ccccc2-3)cc1`, with 5.87 µM. Take `COc1ccccc1C=CC(=O)C=Cc1ccccc1OC`: the half-inhibitory concentration (IC50) was 6.63 µM. The value for `Cc1ccc(O)c(C(=O)/C=C/c2ccc3c(c2)OCCCO3)c1` was 4.93 µM. The value for `COc1ccc(C(C(=O)NC2CCCCC2)n2c(=O)c(-c3ccco3)nc3ccccc32)cc1` (stereo not given) was 3.87 µM. Then `COc1ccc(C(C(=O)Nc2ccc3c(c2)OCCO3)n2c(=O)c(-c3ccco3)nc3ccccc32)cc1` (stereo not given), with 8.54 µM; and `O=C(NCc1ccccc1)C(c1cc2ccccc2o1)n1c(=O)c(-c2ccco2)nc2ccccc21` (stereo not given), with 4.86 µM. On to `C#CCN(C[C@@H]1[C@@H](OC(=O)NCc2ccccc2F)[C@@H](OC(=O)NCc2ccccc2F)Cn2c(=O)ccc(=O)n21)S(=O)(=O)c1ccc(C)cc1`, for which the IC50 is 6.28 µM.

Regarding `CCCCCNC(=O)C(c1cc2ccccc2o1)n1c(=O)c(-c2ccco2)nc2ccccc21` (stereo not given), the concentration for half-maximal inhibition (IC50) was 3.08 µM.

As for `Cc1cccc(C)c1NC(=O)C(c1ccc(C(F)(F)F)cc1)n1c(=O)c(-c2ccco2)nc2ccccc21` (stereo not given), the IC50 is 3.73 µM. Turning to `CC1CCN(S(=O)(=O)c2ccc(NC(=O)Cc3cccs3)cc2)CC1`, the IC50 was 8.04 µM. Then `CCCCCNC(=O)C(C1CC1)n1c(=O)c(-c2ccco2)nc2ccccc21` (stereo not given), with 9.99 µM; and `O=C(NCc1ccccc1)C(c1ccccc1)n1c(=O)c(-c2ccco2)nc2ccccc21` (stereo not given), with 4.77 µM. Then `O=S(=O)(NC1=NCCCCC1)c1ccc2sc(NS(=O)(=O)c3ccc4ccccc4c3)nc2c1`, with “inactive”.

On to `N#Cc1ccccc1OCc1cn(CC(=O)c2ccc(O)cc2)nn1`, for which the IC50 was 5.91 µM.

In the case of `CC(CCc1ccco1)NC(=O)CCc1nnc2ccc(NCc3ccccc3Cl)nn12` (stereo not given), the concentration for half-maximal inhibition (IC50) was 3.73 µM. The value for `O=C1NC(=S)NC(=O)C12C(c1ccccc1)NC(=S)NC2c1ccccc1` (stereo not given) was 3.88 µM; that for `CCC(C)NC(=O)Nc1ccc2c(c1)N(C)C(=O)c1ccccc1S2` (stereo not given) was 3.6 µM. The value for `CN(C)CCCNC(=O)c1ccc(-c2nc(-c3ccc(Cl)cc3)cs2)cc1` was “inactive”; that for `O=C(NC1CCCCC1)C(c1cccc2ccccc12)n1c(=O)c(-c2ccco2)nc2ccccc21` (stereo not given) was 2.33 µM.

In the case of `O=C(/C(=C/O)N=Nc1ccc(Cl)cc1)c1ccncc1`, the 50% inhibitory concentration (IC50) is 9.32 µM. The value for `Cc1cccc(C)c1NC(=O)C(c1ccnc2ccccc12)n1c(=O)c(-c2ccco2)nc2ccccc21` (stereo not given) was 6.13 µM. The value for `CCN(CCCc1ccccc1)CCCc1ccccc1` was 2.62 µM; that for `O=C(/C=C/c1ccc(NC(=O)c2ccccc2-c2ccccc2C(=O)O)cc1)c1ccccc1` was 8.25 µM. Then `CC(C)(C)NC(=O)C(c1ccnc2ccccc12)n1c(=O)c(-c2ccco2)nc2ccccc21` (stereo not given), with 8.16 µM; and `O=C(C[n+]1cccc(CNC(=O)c2ccc(OC(F)F)cc2)c1)Nc1cccc(C(F)(F)F)c1`, with “inactive”; and `NC(=O)C(C(=O)/C=C/c1ccc(Cl)cc1)=C1SCCS1`, with “inactive”. Regarding `CC(=O)Oc1ccc(C23c4ccccc4C2(OC(C)=O)c2cc(OC(C)=O)ccc23)cc1` (stereo not given), the IC50 is 1.33 µM.

As to `O=C(/C=C/c1ccccc1)CC(O)(c1ccccc1)C(F)(F)C(F)F` (stereo not given), the half-inhibitory concentration (IC50) was 1.1 µM. In the case of `Cc1ccc(/C(O)=C2/C(=O)C(=O)OC2c2ccc(Cl)cc2)cc1` (stereo not given), the IC50 result was “inactive”. Then `O=c1c(-c2ccco2)nc2ccccc2n1C(CCc1ccccc1)c1nc2ccccc2[nH]1` (stereo not given), with 5.14 µM; and `CC1=CC(C)(C)Nc2ccc(OC(=O)CN3C(=O)C4CCCCC4C3=O)cc21` (stereo not given), with 4 µM; and `CCOc1cc(/C=C2\CCC/C(=C\c3cc(Cl)c(O)c(OCC)c3)C2=O)cc(Cl)c1O`, with 3.55 µM.
